Source: PubChem BioAssay AID2060889 (Molecular Pharmacology Branch, DTP, NCI, 2025)

Tested on: LG0567-F671-PDC complex spheroids viability
Test: Anticancer human tumor LG0567-F671-PDC patient-derived lung adenocarcinoma cell line growth inhibition [RAS]
Settings: for IC50: curve of first compound; for viability, T/C: stronger effect = lower value
Method in brief: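 Tumour cells grown as complex spheroids with HUVEC endothelial cells and mesenchymal stem cells, treated with RAS pathway inhibitor combinations. Each agent spans half-log steps from near clinical Cmax, or 10 microM where Cmax is unknown.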
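Also: spheroids exposed to compound for seven days before readout.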
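For IC50 in this document: luminescence signal used as a proxy for viable cells.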

CC(=O)OC12COC1CC(O)C1(C)C(=O)C(O)C3=C(C)C(OC(=O)C(O)C(NC(=O)OC(C)(C)C)c4ccccc4)CC(O)(C(OC(=O)c4ccccc4)C21)C3(C)C (stereo unspecified) + CCn1c(-c2cc(N3CCN(C)CC3)cnc2C(C)OC)c2c3cc(ccc31)-c1csc(n1)CC(NC(=O)C1CC1C)C(=O)N1CCCC(N1)C(=O)OCC(C)(C)C2
IC50 (second compound 0.000949 µM): < 31.6 nM
IC50 (second compound 0.003 µM): < 31.6 nM
IC50 (second compound 0.00949 µM): < 31.6 nM
IC50 (second compound 0.03 µM): < 31.6 nM
IC50 (second compound 0.0949 µM): < 31.6 nM
IC50 (second compound 0.3 µM): < 31.6 nM
viability, T/C (second compound 0.000949 µM, first compound 0.0316 µM): 17.3%
viability, T/C (second compound 0.000949 µM, first compound 0.1 µM): 14.6%
viability, T/C (second compound 0.000949 µM, first compound 0.316 µM): 16.6%
viability, T/C (second compound 0.000949 µM, first compound 1 µM): 20.3%
viability, T/C (second compound 0.000949 µM, first compound 3.16 µM): 21.7%
viability, T/C (second compound 0.000949 µM, first compound 10 µM): 15.3%
viability, T/C (second compound 0.003 µM, first compound 0.0316 µM): 8.54%
viability, T/C (second compound 0.003 µM, first compound 0.1 µM): 7.86%
viability, T/C (second compound 0.003 µM, first compound 0.316 µM): 8.72%
viability, T/C (second compound 0.003 µM, first compound 1 µM): 8.18%
viability, T/C (second compound 0.003 µM, first compound 3.16 µM): 8.46%
viability, T/C (second compound 0.003 µM, first compound 10 µM): 5.71%
viability, T/C (second compound 0.00949 µM, first compound 0.0316 µM): 5.57%
viability, T/C (second compound 0.00949 µM, first compound 0.1 µM): 4.28%
viability, T/C (second compound 0.00949 µM, first compound 0.316 µM): 4.95%
viability, T/C (second compound 0.00949 µM, first compound 1 µM): 3.96%
viability, T/C (second compound 0.00949 µM, first compound 3.16 µM): 4.72%
viability, T/C (second compound 0.00949 µM, first compound 10 µM): 3.03%
viability, T/C (second compound 0.03 µM, first compound 0.0316 µM): 3.18%
viability, T/C (second compound 0.03 µM, first compound 0.1 µM): 3.69%
viability, T/C (second compound 0.03 µM, first compound 0.316 µM): 3.02%
viability, T/C (second compound 0.03 µM, first compound 1 µM): 3.03%
viability, T/C (second compound 0.03 µM, first compound 3.16 µM): 2.9%
viability, T/C (second compound 0.03 µM, first compound 10 µM): 1.92%
viability, T/C (second compound 0.0949 µM, first compound 0.0316 µM): 2.46%
viability, T/C (second compound 0.0949 µM, first compound 0.1 µM): 2.37%
viability, T/C (second compound 0.0949 µM, first compound 0.316 µM): 2.22%
viability, T/C (second compound 0.0949 µM, first compound 1 µM): 2.27%
viability, T/C (second compound 0.0949 µM, first compound 3.16 µM): 2.34%
viability, T/C (second compound 0.0949 µM, first compound 10 µM): 1.6%
viability, T/C (second compound 0.3 µM, first compound 0.0316 µM): 2.92%
viability, T/C (second compound 0.3 µM, first compound 0.1 µM): 1.92%
viability, T/C (second compound 0.3 µM, first compound 0.316 µM): 1.85%
viability, T/C (second compound 0.3 µM, first compound 1 µM): 1.89%
viability, T/C (second compound 0.3 µM, first compound 3.16 µM): 2.06%
viability, T/C (second compound 0.3 µM, first compound 10 µM): 1.66%

CC(=O)OC12COC1CC(O)C1(C)C(=O)C(O)C3=C(C)C(OC(=O)C(O)C(NC(=O)OC(C)(C)C)c4ccccc4)CC(O)(C(OC(=O)c4ccccc4)C21)C3(C)C (stereo unspecified) + C=CC(=O)N1CCN(c2nc(OCC3CCCN3C)nc3c(F)c(-c4nc(N)cc(C)c4C(F)(F)F)c(Cl)cc23)C(C)C1
IC50 (second compound 0.00316 µM): < 31.6 nM
IC50 (second compound 0.01 µM): < 31.6 nM
IC50 (second compound 0.0316 µM): < 31.6 nM
IC50 (second compound 0.1 µM): < 31.6 nM
IC50 (second compound 0.316 µM): < 31.6 nM
IC50 (second compound 1 µM): < 31.6 nM
viability, T/C (second compound 0.00316 µM, first compound 0.0316 µM): 14%
viability, T/C (second compound 0.00316 µM, first compound 0.1 µM): 12.6%
viability, T/C (second compound 0.00316 µM, first compound 0.316 µM): 13.9%
viability, T/C (second compound 0.00316 µM, first compound 1 µM): 14.3%
viability, T/C (second compound 0.00316 µM, first compound 3.16 µM): 15.8%
viability, T/C (second compound 0.00316 µM, first compound 10 µM): 12%
viability, T/C (second compound 0.01 µM, first compound 0.0316 µM): 11.3%
viability, T/C (second compound 0.01 µM, first compound 0.1 µM): 11.3%
viability, T/C (second compound 0.01 µM, first compound 0.316 µM): 9.97%
viability, T/C (second compound 0.01 µM, first compound 1 µM): 11.6%
viability, T/C (second compound 0.01 µM, first compound 3.16 µM): 12.5%
viability, T/C (second compound 0.01 µM, first compound 10 µM): 9.61%
viability, T/C (second compound 0.0316 µM, first compound 0.0316 µM): 13.7%
viability, T/C (second compound 0.0316 µM, first compound 0.1 µM): 11.6%
viability, T/C (second compound 0.0316 µM, first compound 0.316 µM): 10.8%
viability, T/C (second compound 0.0316 µM, first compound 1 µM): 11.4%
viability, T/C (second compound 0.0316 µM, first compound 3.16 µM): 14.5%
viability, T/C (second compound 0.0316 µM, first compound 10 µM): 9.14%
viability, T/C (second compound 0.1 µM, first compound 0.0316 µM): 11.1%
viability, T/C (second compound 0.1 µM, first compound 0.1 µM): 10.8%
viability, T/C (second compound 0.1 µM, first compound 0.316 µM): 10.9%
viability, T/C (second compound 0.1 µM, first compound 1 µM): 11.5%
viability, T/C (second compound 0.1 µM, first compound 3.16 µM): 13.6%
viability, T/C (second compound 0.1 µM, first compound 10 µM): 8.85%
viability, T/C (second compound 0.316 µM, first compound 0.0316 µM): 11.9%
viability, T/C (second compound 0.316 µM, first compound 0.1 µM): 10.7%
viability, T/C (second compound 0.316 µM, first compound 0.316 µM): 11.5%
viability, T/C (second compound 0.316 µM, first compound 1 µM): 12.2%
viability, T/C (second compound 0.316 µM, first compound 3.16 µM): 14.7%
viability, T/C (second compound 0.316 µM, first compound 10 µM): 9.3%
viability, T/C (second compound 1 µM, first compound 0.0316 µM): 12.6%
viability, T/C (second compound 1 µM, first compound 0.1 µM): 10.2%
viability, T/C (second compound 1 µM, first compound 0.316 µM): 12.4%
viability, T/C (second compound 1 µM, first compound 1 µM): 14.5%
viability, T/C (second compound 1 µM, first compound 3.16 µM): 14.7%
viability, T/C (second compound 1 µM, first compound 10 µM): 9.86%

CCc1c2c(nc3ccc(O)cc13)-c1cc3c(c(=O)n1C2)COC(=O)[C@]3(O)CC + CCn1c(-c2cc(N3CCN(C)CC3)cnc2C(C)OC)c2c3cc(ccc31)-c1csc(n1)CC(NC(=O)C1CC1C)C(=O)N1CCCC(N1)C(=O)OCC(C)(C)C2
IC50 (second compound 0.000949 µM): < 0.949 nM
IC50 (second compound 0.003 µM): < 0.949 nM
IC50 (second compound 0.00949 µM): < 0.949 nM
IC50 (second compound 0.03 µM): < 0.949 nM
IC50 (second compound 0.0949 µM): < 0.949 nM
IC50 (second compound 0.3 µM): < 0.949 nM
viability, T/C (second compound 0.000949 µM, first compound 0.000949 µM): 25.9%
viability, T/C (second compound 0.000949 µM, first compound 0.003 µM): 19.2%
viability, T/C (second compound 0.000949 µM, first compound 0.00949 µM): 16.8%
viability, T/C (second compound 0.000949 µM, first compound 0.03 µM): 9.71%
viability, T/C (second compound 0.000949 µM, first compound 0.0949 µM): 6.4%
viability, T/C (second compound 0.000949 µM, first compound 0.3 µM): 3.66%
viability, T/C (second compound 0.003 µM, first compound 0.000949 µM): 13.2%
viability, T/C (second compound 0.003 µM, first compound 0.003 µM): 10.5%
viability, T/C (second compound 0.003 µM, first compound 0.00949 µM): 8.66%
viability, T/C (second compound 0.003 µM, first compound 0.03 µM): 6.1%
viability, T/C (second compound 0.003 µM, first compound 0.0949 µM): 4.22%
viability, T/C (second compound 0.003 µM, first compound 0.3 µM): 2.19%
viability, T/C (second compound 0.00949 µM, first compound 0.000949 µM): 6.6%
viability, T/C (second compound 0.00949 µM, first compound 0.003 µM): 5.95%
viability, T/C (second compound 0.00949 µM, first compound 0.00949 µM): 4.92%
viability, T/C (second compound 0.00949 µM, first compound 0.03 µM): 3.8%
viability, T/C (second compound 0.00949 µM, first compound 0.0949 µM): 2.17%
viability, T/C (second compound 0.00949 µM, first compound 0.3 µM): 1.39%
viability, T/C (second compound 0.03 µM, first compound 0.000949 µM): 4.12%
viability, T/C (second compound 0.03 µM, first compound 0.003 µM): 3.96%
viability, T/C (second compound 0.03 µM, first compound 0.00949 µM): 3.68%
viability, T/C (second compound 0.03 µM, first compound 0.03 µM): 2.7%
viability, T/C (second compound 0.03 µM, first compound 0.0949 µM): 1.39%
viability, T/C (second compound 0.03 µM, first compound 0.3 µM): 0.64%
viability, T/C (second compound 0.0949 µM, first compound 0.000949 µM): 3.25%
viability, T/C (second compound 0.0949 µM, first compound 0.003 µM): 3.49%
viability, T/C (second compound 0.0949 µM, first compound 0.00949 µM): 2.57%
viability, T/C (second compound 0.0949 µM, first compound 0.03 µM): 1.66%
viability, T/C (second compound 0.0949 µM, first compound 0.0949 µM): 1.51%
viability, T/C (second compound 0.0949 µM, first compound 0.3 µM): 0.39%
viability, T/C (second compound 0.3 µM, first compound 0.000949 µM): 2.45%
viability, T/C (second compound 0.3 µM, first compound 0.003 µM): 2.81%
viability, T/C (second compound 0.3 µM, first compound 0.00949 µM): 2.34%
viability, T/C (second compound 0.3 µM, first compound 0.03 µM): 1.76%
viability, T/C (second compound 0.3 µM, first compound 0.0949 µM): 0.8%
viability, T/C (second compound 0.3 µM, first compound 0.3 µM): 0.31%
